# Results reported in the supplement of paper PMC10307832.
# Experiments:
# Assay in all cases: relative viability (nuclei count vs DMSO), 5 days (fraction); higher = more cells survive
# BI-D1870 + Navitoclax = compound: CC(C)CCN1c2nc(Nc3cc(F)c(O)c(F)c3)ncc2N(C)C(=O)C1C [BI-D1870] + CC1(C)CCC(c2ccc(Cl)cc2)=C(CN2CCN(c3ccc(C(=O)NS(=O)(=O)c4ccc(N[C@H](CCN5CCOCC5)CSc5ccccc5)c(S(=O)(=O)C(F)(F)F)c4)cc3)CC2)C1 [Navitoclax] (partner 0.5 µM)
# In short: (§1)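 For relative viability, nuclei counts in treated wells were divided by those in vehicle wells. Lung cancer cell lines had been pin-tool dosed in 1536-well plates the day after seeding and cultured for 5 days, then fixed and stained in one step (final 0.05% Triton X-100, 1% formaldehyde, 1 ug/ml Hoechst) and imaged at 4×. Doses were one drug alone or a fixed anchor-drug dose plus five library-drug doses (not always all listed) in √10 steps, and values are duplicate-plate medians.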
# BI-D1870 + Lapatinib = compound: CC(C)CCN1c2nc(Nc3cc(F)c(O)c(F)c3)ncc2N(C)C(=O)C1C [BI-D1870] + CS(=O)(=O)CCNCc1ccc(-c2ccc3ncnc(Nc4ccc(OCc5cccc(F)c5)c(Cl)c4)c3c2)o1 [Lapatinib] (partner 2 µM)
# In short: as §1
# Zebularine + Luminespib = compound: O=c1ncccn1[C@@H]1O[C@H](CO)[C@@H](O)[C@H]1O [Zebularine] + CCNC(=O)c1noc(-c2cc(C(C)C)c(O)cc2O)c1-c1ccc(CN2CCOCC2)cc1 [Luminespib] (partner 0.01 µM)
# In short: as §1
# Zebularine + Dasatinib = compound: O=c1ncccn1[C@@H]1O[C@H](CO)[C@@H](O)[C@H]1O [Zebularine] + Cc1nc(Nc2ncc(C(=O)Nc3c(C)cccc3Cl)s2)cc(N2CCN(CCO)CC2)n1 [Dasatinib] (partner 0.075 µM)
# In short: as §1
Cell Line,relative viability (BI-D1870 + Navitoclax; first compound 0.04 µM),relative viability (BI-D1870 + Navitoclax; first compound 0.1265 µM),relative viability (BI-D1870 + Navitoclax; first compound 0.4 µM),relative viability (BI-D1870 + Navitoclax; first compound 1.265 µM),relative viability (BI-D1870 + Navitoclax; first compound 4 µM),relative viability (BI-D1870 + Lapatinib; first compound 0.04 µM),relative viability (BI-D1870 + Lapatinib; first compound 0.1265 µM),relative viability (BI-D1870 + Lapatinib; first compound 0.4 µM),relative viability (BI-D1870 + Lapatinib; first compound 1.265 µM),relative viability (BI-D1870 + Lapatinib; first compound 4 µM),relative viability (Zebularine + Luminespib; first compound 1 µM),relative viability (Zebularine + Luminespib; first compound 3.162 µM),relative viability (Zebularine + Luminespib; first compound 10 µM),relative viability (Zebularine + Luminespib; first compound 31.62 µM),relative viability (Zebularine + Luminespib; first compound 100 µM),relative viability (Zebularine + Dasatinib; first compound 1 µM),relative viability (Zebularine + Dasatinib; first compound 3.162 µM),relative viability (Zebularine + Dasatinib; first compound 10 µM),relative viability (Zebularine + Dasatinib; first compound 31.62 µM),relative viability (Zebularine + Dasatinib; first compound 100 µM)
NCI-H520,1.12,1.01,0.938,1.05,0.829,1,0.714,0.846,0.619,0.704,0.262,0.261,0.186,0.246,0.192,0.195,0.175,0.14,0.172,0.164
NCI-H647,1.27,0.978,1.08,1.04,0.848,1.26,0.927,1.02,1.03,0.671,0.242,0.173,0.141,0.0957,0.0958,0.202,0.208,0.129,0.101,0.109
NCI-H1792,0.655,0.666,0.597,0.791,0.608,0.926,0.953,0.881,0.967,0.794,0.667,0.4,0.286,0.266,0.254,0.71,0.713,0.262,0.421,0.414
SK-LU-1,1,1.09,0.852,0.54,0.0905,0.922,0.894,0.791,0.793,0.462,0.231,0.187,0.22,0.229,0.183,0.168,0.184,0.162,0.172,0.144
NCI-H1650,1.26,1.05,1.23,1.34,1.15,0.822,0.715,0.721,0.753,0.738,0.188,0.222,0.176,0.234,0.225,0.384,0.366,0.324,0.342,0.312
NCI-H2009,1.22,1.12,1.15,1.09,0.865,1.01,0.955,0.885,0.741,0.478,1.09,1.04,0.793,0.859,0.3,0.371,0.316,0.263,0.309,0.231
LOU-NH91,0.854,0.631,0.721,0.662,0.522,0.837,0.717,0.782,0.837,0.677,0.332,0.33,0.479,0.298,0.3,0.569,0.595,0.553,0.571,0.473
NCI-H2405,1.17,0.774,0.977,0.844,0.671,1.16,1.03,1.05,1.32,1.1,0.705,0.779,0.651,0.797,0.498,0.229,0.213,0.207,0.188,0.211
LCLC-97TM1,0.407,0.398,0.574,0.364,0.613,1.35,0.988,0.622,1.3,0.916,0.806,0.777,0.427,0.241,0.21,0.868,0.844,0.509,0.577,0.315
NCI-H596,1.21,0.922,0.947,1.2,0.987,1.05,1.03,1.19,1.09,1.05,0.897,0.914,0.662,1.13,0.715,0.606,0.648,0.461,0.694,0.565
NCI-H727,0.459,0.362,0.416,0.607,0.501,1.15,0.819,0.786,1.18,0.673,0.382,–,–,1.01,0.272,0.383,–,–,0.349,0.356
H3255,0.688,0.598,0.56,0.595,0.468,0.221,0.266,0.258,0.296,0.244,1.04,0.816,0.797,0.972,0.909,0.402,0.365,0.324,0.409,0.368
SK-MES-1,1.25,1.23,1.15,1.07,0.692,0.468,0.443,0.417,0.509,0.356,0.656,0.755,0.458,0.347,0.251,0.386,0.423,0.356,0.299,0.166
NCI-H1437,1.19,1.06,1.11,1.03,0.973,0.899,0.686,0.76,0.802,0.653,1.22,1.23,0.956,1.16,0.59,0.521,0.462,0.333,0.531,0.459
LU99A,0.805,0.744,0.798,0.961,0.911,1.11,0.942,0.928,0.941,0.939,0.221,0.269,0.166,0.188,0.146,0.722,0.523,0.44,0.325,0.116
HCC-827,1.07,1.03,1.02,1.02,0.941,0.224,0.179,0.194,0.172,0.231,0.756,0.909,0.353,0.582,0.257,0.3,0.292,0.249,0.322,0.238
LK-2,1.22,0.885,0.964,1.05,0.945,1.01,0.888,0.985,1.04,0.977,0.17,0.176,0.213,0.182,0.176,0.242,0.336,0.287,0.256,0.228
BEN,0.0563,0.0674,0.0746,0.383,0.0789,0.713,0.728,0.784,0.749,0.621,0.448,0.172,0.235,0.262,0.178,0.32,0.303,0.253,0.223,0.146
NCI-H23,1.15,0.741,0.792,0.891,0.888,1.41,0.984,1.04,1.31,0.664,0.217,0.221,0.21,0.211,0.199,0.83,0.876,0.497,0.774,0.791
NCI-H1395,1.16,1.12,1.36,1.01,0.871,1.13,0.895,0.989,1.13,0.79,0.564,0.666,0.456,0.536,0.372,0.443,0.37,0.408,0.341,0.36
201T,1.18,1.18,1.19,1.23,1.19,1.01,0.97,1.05,1.02,1.03,1.09,1.1,0.894,1.04,0.724,0.635,0.586,0.508,0.6,0.548
NCI-H2170,0.608,0.524,0.578,0.514,0.496,0.309,0.238,0.278,0.275,0.234,1.07,0.942,0.223,0.689,0.272,0.658,0.572,0.364,0.559,0.278
NCI-H460,1.24,1.09,1.08,0.407,0.0595,1.28,0.823,0.941,0.837,0.586,0.0314,0.0246,0.0322,0.0331,0.0289,0.725,0.527,0.326,0.304,0.0827
HCC-15,0.685,0.656,0.681,0.721,0.459,0.94,0.832,0.774,0.795,0.592,0.297,0.337,0.211,0.34,0.216,0.759,0.577,0.494,0.486,0.27
EPLC-272H,1.3,0.932,1.05,1.24,1.03,0.878,0.879,0.734,1.01,0.852,0.247,0.238,0.237,0.406,0.154,0.405,0.356,0.255,0.34,0.28
